According to the NIST ThermoML archive (doi:10.1016/j.tca.2010.12.008):

Assay: molar heat capacity at constant pressure
Conditions: 101.33 kPa

CC(C)(C)P(=O)(O)C(C)(C)C [di-tert-butylphosphinic acid]
Conditions | molar heat capacity at constant pressure [J/K/mol]
2.277 K, Crystal 2 | 0.028
2.67 K, Crystal 2 | 0.056
3.092 K, Crystal 2 | 0.169
3.71 K, Crystal 2 | 0.338
4.497 K, Crystal 2 | 0.591
5.284 K, Crystal 2 | 0.929
5.987 K, Crystal 2 | 1.352
6.633 K, Crystal 2 | 1.83
7.223 K, Crystal 2 | 2.337
7.813 K, Crystal 2 | 2.872
8.404 K, Crystal 2 | 3.548
9.078 K, Crystal 2 | 4.337
9.808 K, Crystal 2 | 5.322
10.74 K, Crystal 2 | 6.589
11.66 K, Crystal 2 | 7.941
12.56 K, Crystal 2 | 9.405
13.52 K, Crystal 2 | 10.93
14.44 K, Crystal 2 | 12.42
15.34 K, Crystal 2 | 13.94
16.24 K, Crystal 2 | 15.46
17.17 K, Crystal 2 | 17.04
18.15 K, Crystal 2 | 18.7
19.22 K, Crystal 2 | 20.47
20.32 K, Crystal 2 | 22.27
21.3 K, Crystal 2 | 23.93
22.28 K, Crystal 2 | 25.54
23.29 K, Crystal 2 | 27.17
24.3 K, Crystal 2 | 28.84
25.37 K, Crystal 2 | 30.69
26.44 K, Crystal 2 | 32.05
27.48 K, Crystal 2 | 33.54
28.6 K, Crystal 2 | 35.23
29.67 K, Crystal 2 | 36.78
30.74 K, Crystal 2 | 38.47
31.78 K, Crystal 2 | 40.07
32.82 K, Crystal 2 | 41.87
34.73 K, Crystal 2 | 45.11
35.2 K, Crystal 2 | 46.01
35.88 K, Crystal 2 | 47.28
36.58 K, Crystal 2 | 48.41
37.37 K, Crystal 1 | 47.62
38.02 K, Crystal 1 | 45.28
38.77 K, Crystal 1 | 45.25
39.59 K, Crystal 1 | 45.81
40.38 K, Crystal 1 | 46.52
41.16 K, Crystal 1 | 47.25
41.95 K, Crystal 1 | 48.01
42.74 K, Crystal 1 | 48.77
43.55 K, Crystal 1 | 49.65
44.37 K, Crystal 1 | 50.52
45.18 K, Crystal 1 | 51.33
46 K, Crystal 1 | 52.18
46.84 K, Crystal 1 | 53.05
47.66 K, Crystal 1 | 53.9
48.47 K, Crystal 1 | 54.74
49.31 K, Crystal 1 | 55.53
50.1 K, Crystal 1 | 56.32
50.97 K, Crystal 1 | 57.08
51.81 K, Crystal 1 | 57.9
52.63 K, Crystal 1 | 58.8
53.44 K, Crystal 1 | 59.56
54.29 K, Crystal 1 | 60.43
55.1 K, Crystal 1 | 61.3
55.94 K, Crystal 1 | 62.17
56.79 K, Crystal 1 | 63.08
57.66 K, Crystal 1 | 63.98
58.67 K, Crystal 1 | 65.08
59.34 K, Crystal 1 | 65.81
60.19 K, Crystal 1 | 66.74
61 K, Crystal 1 | 67.64
61.65 K, Crystal 1 | 68.31
62.63 K, Crystal 1 | 69.41
63.11 K, Crystal 1 | 69.95
63.56 K, Crystal 1 | 70.45
64.57 K, Crystal 1 | 71.58
65.27 K, Crystal 1 | 72.4
66 K, Crystal 1 | 73.16
66.9 K, Crystal 1 | 74.2
67.41 K, Crystal 1 | 74.76
67.94 K, Crystal 1 | 75.35
68.9 K, Crystal 1 | 76.37
69.57 K, Crystal 1 | 77.21
70.28 K, Crystal 1 | 77.94
70.64 K, Crystal 1 | 78.42
71.23 K, Crystal 1 | 79.24
71.62 K, Crystal 1 | 79.66
81.51 K, Crystal 1 | 92.05
82.47 K, Crystal 1 | 93.11
83.42 K, Crystal 1 | 94.18
84.38 K, Crystal 1 | 95.24
85.33 K, Crystal 1 | 96.41
86.29 K, Crystal 1 | 97.48
87.35 K, Crystal 1 | 98.65
88.31 K, Crystal 1 | 99.82
89.26 K, Crystal 1 | 100.89
90.32 K, Crystal 1 | 102.06
91.28 K, Crystal 1 | 103.23
92.34 K, Crystal 1 | 104.4
93.3 K, Crystal 1 | 105.58
94.36 K, Crystal 1 | 106.75
95.31 K, Crystal 1 | 107.81
96.27 K, Crystal 1 | 109.09
97.33 K, Crystal 1 | 110.16
98.39 K, Crystal 1 | 111.33
99.34 K, Crystal 1 | 112.39
100.41 K, Crystal 1 | 113.56
101.47 K, Crystal 1 | 114.74
102.53 K, Crystal 1 | 115.8
103.59 K, Crystal 1 | 116.97
104.55 K, Crystal 1 | 118.04
105.71 K, Crystal 1 | 119.32
106.78 K, Crystal 1 | 120.49
107.84 K, Crystal 1 | 121.56
108.9 K, Crystal 1 | 122.73
109.96 K, Crystal 1 | 123.9
111.02 K, Crystal 1 | 124.96
112.08 K, Crystal 1 | 126.24
113.14 K, Crystal 1 | 127.31
114.2 K, Crystal 1 | 128.48
115.27 K, Crystal 1 | 129.54
116.43 K, Crystal 1 | 130.61
117.5 K, Crystal 1 | 131.89
118.56 K, Crystal 1 | 133.17
119.72 K, Crystal 1 | 134.34
120.79 K, Crystal 1 | 135.3
121.95 K, Crystal 1 | 136.47
123.12 K, Crystal 1 | 137.64
124.18 K, Crystal 1 | 138.92
125.35 K, Crystal 1 | 139.99
126.52 K, Crystal 1 | 141.05
127.69 K, Crystal 1 | 142.22
128.85 K, Crystal 1 | 143.4
130.02 K, Crystal 1 | 144.57
131.19 K, Crystal 1 | 145.74
132.46 K, Crystal 1 | 147.02
133.53 K, Crystal 1 | 148.19
134.69 K, Crystal 1 | 149.04
135.75 K, Crystal 1 | 150.32
137.24 K, Crystal 1 | 151.28
138.41 K, Crystal 1 | 152.45
139.58 K, Crystal 1 | 153.52
141.06 K, Crystal 1 | 154.79
142.44 K, Crystal 1 | 156.07
143.93 K, Crystal 1 | 157.56
145.2 K, Crystal 1 | 158.74
146.69 K, Crystal 1 | 160.12
148.18 K, Crystal 1 | 161.4
149.88 K, Crystal 1 | 163
151.25 K, Crystal 1 | 164.38
152.74 K, Crystal 1 | 165.77
154.33 K, Crystal 1 | 167.04
155.61 K, Crystal 1 | 168.32
157.31 K, Crystal 1 | 169.71
158.79 K, Crystal 1 | 170.99
160.17 K, Crystal 1 | 172.37
162.09 K, Crystal 1 | 173.76
163.68 K, Crystal 1 | 175.25
164.95 K, Crystal 1 | 176.42
166.76 K, Crystal 1 | 177.81
168.24 K, Crystal 1 | 179.3
169.94 K, Crystal 1 | 180.79
171.64 K, Crystal 1 | 182.28
173.34 K, Crystal 1 | 183.77
174.83 K, Crystal 1 | 185.05
176.74 K, Crystal 1 | 186.86
182.79 K, Crystal 1 | 191.66
183.96 K, Crystal 1 | 192.72
185.13 K, Crystal 1 | 193.79
186.61 K, Crystal 1 | 195.06
188.1 K, Crystal 1 | 196.24
189.16 K, Crystal 1 | 197.3
190.75 K, Crystal 1 | 198.37
192.13 K, Crystal 1 | 199.65
193.62 K, Crystal 1 | 200.92
195.11 K, Crystal 1 | 202.2
196.49 K, Crystal 1 | 203.37
198.08 K, Crystal 1 | 204.65
199.57 K, Crystal 1 | 205.72
201.16 K, Crystal 1 | 207.1
202.65 K, Crystal 1 | 208.27
204.13 K, Crystal 1 | 209.55
205.72 K, Crystal 1 | 210.72
207.32 K, Crystal 1 | 212
209.02 K, Crystal 1 | 213.18
210.5 K, Crystal 1 | 214.45
212.31 K, Crystal 1 | 215.73
213.8 K, Crystal 1 | 217.01
215.5 K, Crystal 1 | 218.5
217.3 K, Crystal 1 | 219.78
218.89 K, Crystal 1 | 221.16
220.7 K, Crystal 1 | 222.76
222.5 K, Crystal 1 | 224.04
224.31 K, Crystal 1 | 225.53
225.9 K, Crystal 1 | 227.24
227.81 K, Crystal 1 | 228.62
229.72 K, Crystal 1 | 230.11
231.53 K, Crystal 1 | 231.82
233.23 K, Crystal 1 | 233.2
235.03 K, Crystal 1 | 234.69
236.84 K, Crystal 1 | 236.08
238.85 K, Crystal 1 | 237.57
240.66 K, Crystal 1 | 239.06
242.78 K, Crystal 1 | 240.77
244.7 K, Crystal 1 | 242.15
246.61 K, Crystal 1 | 243.75
248.52 K, Crystal 1 | 245.35
250.54 K, Crystal 1 | 247.05
252.55 K, Crystal 1 | 248.76
254.57 K, Crystal 1 | 250.25
256.59 K, Crystal 1 | 251.85
258.71 K, Crystal 1 | 253.44
260.62 K, Crystal 1 | 255.26
262.75 K, Crystal 1 | 257.07
264.98 K, Crystal 1 | 258.77
266.89 K, Crystal 1 | 260.69
269.22 K, Crystal 1 | 262.39
271.35 K, Crystal 1 | 264.63
273.37 K, Crystal 1 | 265.91
275.7 K, Crystal 1 | 267.4
277.82 K, Crystal 1 | 269.32
280.27 K, Crystal 1 | 271.45
282.18 K, Crystal 1 | 272.62
284.62 K, Crystal 1 | 274.96
286.96 K, Crystal 1 | 276.99
289.29 K, Crystal 1 | 279.01
291.63 K, Crystal 1 | 281.14
293.64 K, Crystal 1 | 283.17
295.98 K, Crystal 1 | 283.49
